Laboratory results from patent US20260028365A1 (BIOGEN MA INC., priority 2022, published 2026).

target: Tyk2 (Homo sapiens (Human), UniProt P29597); assay: pSTAT4 Cell Assay (MSD, NK92 cells); assay type: cell-based
Sequence (P29597 whole entry): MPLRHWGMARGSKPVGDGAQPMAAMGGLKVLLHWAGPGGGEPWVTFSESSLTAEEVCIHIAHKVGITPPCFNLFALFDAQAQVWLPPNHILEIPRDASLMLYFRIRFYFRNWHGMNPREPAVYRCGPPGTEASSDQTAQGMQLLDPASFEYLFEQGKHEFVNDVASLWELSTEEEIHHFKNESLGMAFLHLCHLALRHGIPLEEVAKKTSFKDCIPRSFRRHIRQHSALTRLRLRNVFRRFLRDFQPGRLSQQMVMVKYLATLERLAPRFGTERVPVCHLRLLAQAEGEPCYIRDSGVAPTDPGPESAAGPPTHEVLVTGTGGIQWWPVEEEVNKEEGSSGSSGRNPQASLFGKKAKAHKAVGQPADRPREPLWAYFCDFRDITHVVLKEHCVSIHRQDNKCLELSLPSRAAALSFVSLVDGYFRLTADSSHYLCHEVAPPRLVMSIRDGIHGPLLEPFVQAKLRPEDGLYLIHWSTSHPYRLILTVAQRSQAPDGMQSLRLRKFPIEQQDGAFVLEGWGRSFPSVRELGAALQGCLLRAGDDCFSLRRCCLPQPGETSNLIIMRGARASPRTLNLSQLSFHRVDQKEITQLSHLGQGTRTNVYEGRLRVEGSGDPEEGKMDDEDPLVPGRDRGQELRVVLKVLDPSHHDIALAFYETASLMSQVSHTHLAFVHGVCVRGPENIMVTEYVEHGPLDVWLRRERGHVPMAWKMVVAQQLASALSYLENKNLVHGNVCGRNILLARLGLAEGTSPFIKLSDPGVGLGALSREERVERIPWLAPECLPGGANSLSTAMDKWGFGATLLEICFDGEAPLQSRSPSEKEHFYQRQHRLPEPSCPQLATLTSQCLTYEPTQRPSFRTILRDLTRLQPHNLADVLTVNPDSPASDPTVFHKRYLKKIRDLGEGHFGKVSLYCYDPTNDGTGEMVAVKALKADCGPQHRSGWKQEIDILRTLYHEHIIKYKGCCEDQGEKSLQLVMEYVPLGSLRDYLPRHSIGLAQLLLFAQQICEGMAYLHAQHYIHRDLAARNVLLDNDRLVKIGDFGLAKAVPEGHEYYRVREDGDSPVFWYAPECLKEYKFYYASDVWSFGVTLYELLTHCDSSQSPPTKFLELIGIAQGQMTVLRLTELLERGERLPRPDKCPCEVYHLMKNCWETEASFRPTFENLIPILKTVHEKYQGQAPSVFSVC

Compound | IC50 [nM]
CCc1cc(Nc2cc(NC(C)=O)ncc2-c2ccc(F)c(CN3C[C@H]4C[C@@H]3CO4)n2)nc(C(C)(F)F)n1 [Example 908, N-(6-(((1R,4R)-2-oxa-5-azabicyclo[2.2.1]heptan-5-yl)methyl)-4′-((2-(1,1-difluoroethyl)-6-ethylpyrimidin-4-yl)amino)-5-fluoro-[2,3′-bipyridin]-6′-yl)acetamide] | ≤ 10
CCc1cc(Nc2cc(NC(C)=O)ncc2-c2ccnc(CN3CCOCC3)n2)nc(C(C)(F)F)n1 [Example 909, N-(4-((2-(1,1-difluoroethyl)-6-ethylpyrimidin-4-yl)amino)-5-(2-(morpholinomethyl)pyrimidin-4-yl)pyridin-2-yl)acetamide] | 100 to 1000
CCc1cc(Nc2cc(NC(C)=O)ncc2-c2ccc(F)c(CN3CCOCC3)n2)nc(C(C)(F)F)n1 [Example 910, N-(4′-((2-(1,1-difluoroethyl)-6-ethylpyrimidin-4-yl)amino)-5-fluoro-6-(morpholinomethyl)-[2,3′-bipyridin]-6′-yl)acetamide] | ≤ 10
CCc1cc(Nc2cc(NC(C)=O)ncc2-c2ccc(CN3C[C@H]4C[C@@H](C3)O4)cn2)nc(C(C)(F)F)n1 [Example 912, N-(5-(((1R,5S)-6-oxa-3-azabicyclo[3.1.1]heptan-3-yl)methyl)-4′-((2-(1,1-difluoroethyl)-6-ethylpyrimidin-4-yl)amino)-[2,3′-bipyridin]-6′-yl)acetamide] | ≤ 10
CCc1cc(Nc2cc(NC(C)=O)ncc2-c2ccnc(CN3C[C@H]4C[C@@H](C3)O4)n2)nc(C(C)(F)F)n1 [Example 913, N-(5-(2-(((1R,5S)-6-oxa-3-azabicyclo[3.1.1]heptan-3-yl)methyl)pyrimidin-4-yl)-4-((2-(1,1-difluoroethyl)-6-ethylpyrimidin-4-yl)amino)pyridin-2-yl)acetamide] | 10 to 100
CCc1cc(Nc2cc(NC(C)=O)ncc2-c2ccc(F)c(CN3C[C@H]4C[C@@H](C3)O4)n2)nc(C(C)(F)F)n1 [Example 915, N-(6-(((1R,5S)-6-oxa-3-azabicyclo[3.1.1]heptan-3-yl)methyl)-4′-((2-(1,1-difluoroethyl)-6-ethylpyrimidin-4-yl)amino)-5-fluoro-[2,3′-bipyridin]-6′-yl)acetamide] | ≤ 10
CC(=O)Nc1cc(Nc2cc(C)nc(C(C)(F)F)n2)c(-c2ccc(P(C)(C)=O)cn2)cn1 [Example 916, N-(4′-((2-(1,1-difluoroethyl)-6-methylpyrimidin-4-yl)amino)-5-(dimethylphosphoryl)-[2,3′-bipyridin]-6′-yl)acetamide] | ≤ 10
CC(=O)Nc1cc(Nc2cc(C)nc(C(C)(F)F)n2)c(-c2ccc(P(C)(C)=O)nn2)cn1 [Example 917, N-(4-((2-(1,1-difluoroethyl)-6-methylpyrimidin-4-yl)amino)-5-(6-(dimethylphosphoryl)pyridazin-3-yl)pyridin-2-yl)acetamide] | 10 to 100
CC(=O)Nc1cc(Nc2ccnc(C(C)(F)F)n2)c(-c2csc(CC#N)n2)cn1 [Example 922, N-(5-(2-(cyanomethyl)thiazol-4-yl)-4-((2-(1,1-difluoroethyl)pyrimidin-4-yl)amino)pyridin-2-yl)acetamide] | ≤ 10
